Measured values: PMC9267128, “New 2-[(4-Amino-6-N-substituted-1,3,5-triazin-2-yl)methylthio]-N-(imidazolidin-2-ylidene)-4-chloro-5-methylbenzenesulfonamide Derivatives, Design, Synthesis and Anticancer Evaluation” (International Journal of Molecular Sciences, 2022)

What was measured:
HCT-116 (colon cancer) = experiment: MTT cell viability assay, HCT-116; assay type: cell-based, human; conditions: for IC50: Homo sapiens, HCT-116, 72 h, MTT assay, 72 h of incubation
Experimental: (§1) Analysis was performed using an MTT assay after 72 h of incubation.
(§2) All chemicals, if not stated otherwise, were obtained from Sigma–Aldrich (St. Louis, MO, USA). The HCT-116 cell line was purchased from ATCC (ATCC-No: CCL-247), while the MCF-7, HeLa and HaCaT cell lines were purchased from Cell Lines Services (Eppelheim, Germany). Cells were cultured in Dulbecco’s modified Eagle’s medium (DMEM) supplemented with 10% fetal bovine serum, 2 mM glutamine, 100 units/mL penicillin and 100 µg/mL streptomycin. Cultures were maintained in a humidified atmosphere with 5% carbon dioxide at 37 °C in an incubator (Heraceus, HeraCell).
(§3) Cell viability was examined using the MTT [3-(4,5-dimethylthiazol-2-yl)-2,5-diphenyltetrazolium bromide] assay. Cells were seeded in 96-well plates at a density of 3 × 10^3 cells/well and treated for 72 h with the tested compounds in the concentration range of 1–100 µM. Then, MTT (0.5 mg/mL) was added to the medium and cells were further incubated for 2 h at 37 °C. In the next stage, cells were lysed with DMSO and the absorbance of the formazan solution was measured at 550 nm with a plate reader (1420 multilabel counter, Victor, Jügesheim, Germany). The experiment was performed in triplicate. Values are expressed as the mean ± SD of at least three independent experiments.

MCF-7 (breast cancer) = experiment: MTT cell viability assay, MCF-7; assay type: cell-based, human; conditions: for IC50: Homo sapiens, MCF7, 72 h, MTT assay, 72 h of incubation
Experimental: (§4) Compounds 20–162 were evaluated in vitro for their effects on the viability of three cancer cell lines: HCT-116 (colon cancer), MCF-7 (breast cancer) and HeLa (cervical cancer), as well as the non-cancerous keratinocyte cell line (HaCaT). […] Analysis was performed using an MTT assay after 72 h of incubation.
as §2
as §3, with “experiments. Cisplatin was used as a positive control.” for “experiments.”

[1] = tested on: HaCaT (human keratinocyte cell line); experiment: MTT cell viability assay, non-cancerous HaCaT; assay type: cell-based; conditions: Homo sapiens, HaCaT, 72 h, 72 h of incubation, non-cancerous keratinocytes
Experimental: as §4, §2
as §3, with “experiments. Cisplatin was used as a positive control.” for “experiments.”

HeLa (cervical cancer) = experiment: MTT cell viability assay, HeLa; assay type: cell-based, human; conditions: for IC50: Homo sapiens, HeLa, MTT assay, 72 h of incubation
Experimental: as §1, §2, §3

| Compound | IC50 (HCT-116 (colon cancer)) [µM] | IC50 (MCF-7 (breast cancer)) [µM] | IC50 (HeLa (cervical cancer)) [µM] | IC50 [1] [µM] | Selectivity Index (SI) HCT-116 (HCT-116 (colon cancer); IC50 value toward HaCaT cells/IC50 value toward HCT-116) | Selectivity Index (SI) MCF-7 (MCF-7 (breast cancer); IC50 value toward HaCaT cells/IC50 value toward MCF-7) | Selectivity Index (SI) HeLa (HeLa (cervical cancer); IC50 value toward HaCaT cells/IC50 value toward HeLa) |
| --- | --- | --- | --- | --- | --- | --- | --- |
| Cc1cc(S(=O)(=O)N=C2NCCN2Cc2ccc(F)cc2)c(SCc2nc(N)nc(N3CCN(c4cccc(Cl)c4)CC3)n2)cc1Cl [Compound 97] | 6 ± 0.2 | 7 ± 0.4 | 9 ± 0.3 | 24 ± 1 | – | – | – |
| Cc1cc(S(=O)(=O)N=C2NCCN2Cc2ccc(F)cc2)c(SCc2nc(N)nc(N3CCN(c4ccc(Cl)c(Cl)c4)CC3)n2)cc1Cl [Compound 98] | 7 ± 0.1 | 7 ± 0.4 | 8 ± 0.4 | 18 ± 1 | – | – | – |
| Cc1cc(S(=O)(=O)N=C2NCCN2Cc2ccc(F)cc2)c(SCc2nc(N)nc(N3CCN(c4ccc(F)c(Cl)c4)CC3)n2)cc1Cl [Compound 99] | 17 ± 1 | 17 ± 1 | 18 ± 0.5 | 30 ± 1 | – | – | – |
| Cc1cc(S(=O)(=O)N=C2NCCN2Cc2ccc(F)cc2)c(SCc2nc(N)nc(N3CCN(Cc4ccccc4)CC3)n2)cc1Cl [Compound 101] | 12 ± 0.5 | 11 ± 0.2 | 10 ± 0.6 | 21 ± 1 | – | – | – |
| Cc1cc(S(=O)(=O)N=C2NCCN2Cc2ccc(Br)cc2)c(SCc2nc(N)nc(N3CCc4ccccc43)n2)cc1Cl [Compound 102] | 8 ± 0.4 | 7.5 ± 0.4 | 17 ± 1 | 33 ± 1 | – | – | – |
| Cc1cc(S(=O)(=O)N=C2NCCN2Cc2ccc(Br)cc2)c(SCc2nc(N)nc(N3CCCc4ccccc43)n2)cc1Cl [Compound 103] | 7 ± 0.1 | 6.5 ± 0.3 | 16 ± 0.5 | 28 ± 1 | – | – | – |
| Cc1cc(S(=O)(=O)N=C2NCCN2Cc2ccc(Br)cc2)c(SCc2nc(N)nc(N(C)c3ccc(Cl)cc3)n2)cc1Cl [Compound 105] | 13 ± 0.8 | 10 ± 0.2 | 17 ± 0.5 | 35 ± 2 | – | – | – |
| Cc1cc(S(=O)(=O)N=C2NCCN2Cc2ccc(Br)cc2)c(SCc2nc(N)nc(N3CCN(c4ccccc4)CC3)n2)cc1Cl [Compound 106] | 8.5 ± 0.1 | 6.5 ± 0.4 | 82 ± 4 | 110 ± 4 | – | – | – |
| Cc1cc(S(=O)(=O)N=C2NCCN2Cc2ccc(Br)cc2)c(SCc2nc(N)nc(N3CCN(c4ccc(F)cc4)CC3)n2)cc1Cl [Compound 107] | 8.5 ± 0.3 | 7 ± 0.2 | 58 ± 2 | 76 ± 4 | – | – | – |
| Cc1cc(S(=O)(=O)N=C2NCCN2Cc2ccc(Br)cc2)c(SCc2nc(N)nc(N3CCN(c4cccc(C(F)(F)F)c4)CC3)n2)cc1Cl [Compound 108] | 10.5 ± 0.5 | 11 ± 0.5 | 11 ± 0.5 | 24 ± 1 | – | – | – |
| Cc1cc(S(=O)(=O)N=C2NCCN2Cc2ccc(Br)cc2)c(SCc2nc(N)nc(N3CCN(c4ccc(Cl)cc4)CC3)n2)cc1Cl [Compound 109] | 23 ± 1 | 22 ± 0.5 | 36 ± 2 | 55 ± 2 | – | – | – |
| Cc1cc(S(=O)(=O)N=C2NCCN2Cc2ccc(Br)cc2)c(SCc2nc(N)nc(N3CCN(c4ccc(Cl)c(Cl)c4)CC3)n2)cc1Cl [Compound 110] | 20 ± 0.6 | 23 ± 1 | 85 ± 5 | 123 ± 6 | – | – | – |
| Cc1cc(S(=O)(=O)N=C2NCCN2Cc2cccc(C(F)(F)F)c2)c(SCc2nc(N)nc(N3CCCc4ccccc43)n2)cc1Cl [Compound 112] | 15 ± 0.3 | 17 ± 1 | 15.5 ± 1 | 29 ± 1 | – | – | – |
| Cc1cc(S(=O)(=O)N=C2NCCN2Cc2cccc(C(F)(F)F)c2)c(SCc2nc(N)nc(N3CCN(c4ccc(C(F)(F)F)cc4)CC3)n2)cc1Cl [Compound 114] | 5 ± 0.2 | 6.5 ± 0.3 | 12 ± 0.3 | 27 ± 1 | 5.4 | 4.1 | 2.2 |
| Cc1cc(S(=O)(=O)N=C2NCCN2Cc2cccc(C(F)(F)F)c2)c(SCc2nc(N)nc(N3CCN(c4ccc(Cl)c(Cl)c4)CC3)n2)cc1Cl [Compound 115] | 5.5 ± 0.2 | 6.5 ± 0.2 | 12 ± 1 | 23 ± 0.5 | – | – | – |
| Cc1cc(S(=O)(=O)N=C2NCCN2Cc2cccc(C(F)(F)F)c2)c(SCc2nc(N)nc(N3CCN(Cc4ccccc4)CC3)n2)cc1Cl [Compound 117] | 16 ± 0.5 | 17 ± 1 | 12 ± 0.2 | 36 ± 2 | – | – | – |
| Cc1cc(S(=O)(=O)N=C2NCCN2Cc2ccc(C(F)(F)F)cc2)c(SCc2nc(N)nc(N3CCOCC3)n2)cc1Cl [Compound 119] | 13 ± 0.4 | 13.5 ± 1 | 18 ± 1 | 41 ± 2 | – | – | – |
| Cc1cc(S(=O)(=O)N=C2NCCN2Cc2ccc(C(F)(F)F)cc2)c(SCc2nc(N)nc(N3CCN(C)CC3)n2)cc1Cl [Compound 130] | 10.5 ± 0.4 | 8 ± 0.3 | 17 ± 0.5 | 36 ± 1 | – | – | – |
| Cc1cc(S(=O)(=O)N=C2NCCN2Cc2ccc(C(F)(F)F)cc2)c(SCc2nc(N)nc(N3CCN(c4ccccc4)CC3)n2)cc1Cl [Compound 131] | 7 ± 0.2 | 15 ± 0.5 | 13 ± 0.5 | 25 ± 1 | – | – | – |

Second part, led by results:

| IC50 (HCT-116 (colon cancer)) [µM] | IC50 (MCF-7 (breast cancer)) [µM] | IC50 (HeLa (cervical cancer)) [µM] | Compound | IC50 [1] [µM] | Selectivity Index (SI) HCT-116 (HCT-116 (colon cancer); IC50 value toward HaCaT cells/IC50 value toward HCT-116) | Selectivity Index (SI) MCF-7 (MCF-7 (breast cancer); IC50 value toward HaCaT cells/IC50 value toward MCF-7) | Selectivity Index (SI) HeLa (HeLa (cervical cancer); IC50 value toward HaCaT cells/IC50 value toward HeLa) |
| --- | --- | --- | --- | --- | --- | --- | --- |
| 8 ± 0.2 | 7 ± 0.1 | 8 ± 0.5 | COc1ccc(N2CCN(c3nc(N)nc(CSc4cc(Cl)c(C)cc4S(=O)(=O)N=C4NCCN4Cc4ccc(F)cc4)n3)CC2)cc1 [Compound 100] | 18 ± 1 | – | – | – |
| 17 ± 1 | 13 ± 0.4 | 25 ± 1 | Cc1cc(S(=O)(=O)N=C2NCCN2Cc2ccc(Br)cc2)c(SCc2nc(N)nc(Nc3ccccc3)n2)cc1Cl [Compound 104] | 44 ± 2 | – | – | – |
| 6 ± 0.2 | 8.5 ± 0.3 | 17 ± 1 | COc1ccc(N2CCN(c3nc(N)nc(CSc4cc(Cl)c(C)cc4S(=O)(=O)N=C4NCCN4Cc4cccc(C(F)(F)F)c4)n3)CC2)cc1 [Compound 116] | 31 ± 2 | – | – | – |
| 9 ± 0.5 | 11 ± 0.1 | 12 ± 0.5 | Cc1cc(S(=O)(=O)N=C2NCCN2Cc2ccc(C(F)(F)F)cc2)c(SCc2nc(N)nc(N3CCc4ccccc43)n2)cc1Cl [Compound 120] | 24 ± 1 | – | – | – |
| 6 ± 0.1 | 14 ± 1 | 13 ± 1 | Cc1cc(S(=O)(=O)N=C2NCCN2Cc2ccc(C(F)(F)F)cc2)c(SCc2nc(N)nc(N3CCCc4ccccc43)n2)cc1Cl [Compound 121] | 24 ± 1 | – | – | – |
| 14 ± 0.4 | 20 ± 1 | 19 ± 0.5 | Cc1cc(S(=O)(=O)N=C2NCCN2Cc2ccc(C(F)(F)F)cc2)c(SCc2nc(N)nc(Nc3ccccc3)n2)cc1Cl [Compound 122] | 35 ± 1 | – | – | – |
| 12 ± 0.5 | 21 ± 0.6 | 18 ± 1 | Cc1cc(S(=O)(=O)N=C2NCCN2Cc2ccc(C(F)(F)F)cc2)c(SCc2nc(N)nc(Nc3ccc(F)cc3)n2)cc1Cl [Compound 123] | 30 ± 1 | – | – | – |
| 9.5 ± 0.1 | 10 ± 0.5 | 15 ± 0.2 | Cc1cc(S(=O)(=O)N=C2NCCN2Cc2ccc(C(F)(F)F)cc2)c(SCc2nc(N)nc(Nc3cccc(Cl)c3)n2)cc1Cl [Compound 124] | 31 ± 1 | – | – | – |
| 7.5 ± 0.2 | 7.5 ± 0.2 | 13 ± 0.5 | Cc1cc(S(=O)(=O)N=C2NCCN2Cc2ccc(C(F)(F)F)cc2)c(SCc2nc(N)nc(Nc3ccc(C(F)(F)F)cc3)n2)cc1Cl [Compound 125] | 25 ± 1 | – | – | – |
| 11 ± 0.6 | 21 ± 1 | 20 ± 1 | COc1ccc(Nc2nc(N)nc(CSc3cc(Cl)c(C)cc3S(=O)(=O)N=C3NCCN3Cc3ccc(C(F)(F)F)cc3)n2)cc1 [Compound 126] | 37 ± 1 | – | – | – |
| 17 ± 0.5 | 17.5 ± 1 | 18 ± 1 | Cc1cc(S(=O)(=O)N=C2NCCN2Cc2ccc(C(F)(F)F)cc2)c(SCc2nc(N)nc(NCc3ccccc3)n2)cc1Cl [Compound 127] | 39 ± 2 | – | – | – |
| 10 ± 0.3 | 14 ± 0.5 | 15 ± 0.4 | Cc1cc(S(=O)(=O)N=C2NCCN2Cc2ccc(C(F)(F)F)cc2)c(SCc2nc(N)nc(N(C)c3ccccc3)n2)cc1Cl [Compound 128] | 33 ± 1 | – | – | – |
| 11 ± 0.1 | 14 ± 0.5 | 15 ± 1 | Cc1cc(S(=O)(=O)N=C2NCCN2Cc2ccc(C(F)(F)F)cc2)c(SCc2nc(N)nc(N(C)c3ccc(Cl)cc3)n2)cc1Cl [Compound 129] | 31 ± 1 | – | – | – |
| 8 ± 0.2 | 17 ± 0.4 | 16 ± 1 | Cc1cc(S(=O)(=O)N=C2NCCN2Cc2ccc(C(F)(F)F)cc2)c(SCc2nc(N)nc(N3CCN(c4ccc(F)cc4)CC3)n2)cc1Cl [Compound 132] | 26 ± 1 | – | – | – |
